According to ChEMBL document CHEMBL3611985, “Synthesis and structure-activity relationships of novel 9-oxime acylides with improved bactericidal activity” (2015):
≈ marks a conversion by molar mass, not a printed value.

What was measured:
Assay type in all cases: functional
[1] = tested on: Streptococcus pyogenes; test: Antimicrobial activity against Streptococcus pyogenes 01-968 expressing inducible ermA incubated for 20 to 24 hrs by two-fold microbroth dilution method
[2] = tested on: Haemophilus influenzae; test: Antimicrobial activity against azithromycin-susceptible and ampicillin-resistant Haemophilus influenzae 11P037 incubated for 20 to 24 hrs by two-fold microbroth dilution method
[3] = tested on: Streptococcus pneumoniae; test: Antimicrobial activity against Streptococcus pneumoniae 07P390 expressing constitutive ermB incubated for 20 to 24 hrs by two-fold microbroth dilution method
[4] = tested on: Staphylococcus aureus; test: Antimicrobial activity against methicillin-resistant Staphylococcus aureus PU20 expressing constitutive ermC incubated for 20 hrs by two-fold microbroth dilution method; settings: PU20, 20 h
[5] = tested on: Staphylococcus aureus; test: Antimicrobial activity against methicillin-resistant Staphylococcus aureus PU32 expressing inducible ermA incubated for 20 hrs by two-fold microbroth dilution method; settings: PU32, 20 h
[6] = tested on: Streptococcus pneumoniae; test: Antimicrobial activity against penicillin-susceptible Streptococcus pneumoniae PU09 incubated for 20 to 24 hrs by two-fold microbroth dilution method
[7] = tested on: Streptococcus pneumoniae; test: Antimicrobial activity against erythromycin-susceptible Streptococcus pneumoniae ATCC 49619 incubated for 20 to 24 hrs by two-fold microbroth dilution method

Structure (SMILES): CC[C@H]1OC(=O)[C@H](C)[C@@H](OC(=O)Cc2ccccn2)[C@H](C)[C@@H](O[C@@H]2O[C@H](C)C[C@H](N(C)C)[C@H]2O)[C@](C)(OC)C[C@@H](C)/C(=N\OCC#Cc2cncc(NC(=O)Cc3ccccn3)c2)[C@H](C)[C@H]2OC(=O)O[C@@]21C
- MIC [1]: 4 µg/mL (≈ 4 µM)
- MIC [2]: > 64 µg/mL
- MIC [3]: 1 µg/mL (≈ 1 µM)
- MIC [4]: > 64 µg/mL
- MIC [5]: 2 µg/mL (≈ 2 µM)
- MIC [6]: 2 µg/mL (≈ 2 µM)
- MIC [7]: 0.031 µg/mL (≈ 0.031 µM)

Structure (SMILES): CC[C@H]1OC(=O)[C@H](C)[C@@H](OC(=O)Cc2ccccn2)[C@H](C)[C@@H](O[C@@H]2O[C@H](C)C[C@H](N(C)C)[C@H]2O)[C@](C)(OC)C[C@@H](C)/C(=N\OC/C=C/c2ccc(N)nc2)[C@H](C)[C@H]2OC(=O)O[C@@]21C
- MIC [1]: 4 µg/mL (≈ 4.53 µM)
- MIC [2]: 32 µg/mL (≈ 36.3 µM)
- MIC [3]: 1 µg/mL (≈ 1.13 µM)
- MIC [4]: > 64 µg/mL
- MIC [5]: 0.5 µg/mL (≈ 0.567 µM)
- MIC [6]: 1 µg/mL (≈ 1.13 µM)
- MIC [7]: 0.031 µg/mL (≈ 0.0351 µM)

Structure (SMILES): CC[C@H]1OC(=O)[C@H](C)[C@@H](OC(=O)Cc2ccccn2)[C@H](C)[C@@H](O[C@@H]2O[C@H](C)C[C@H](N(C)C)[C@H]2O)[C@](C)(OC)C[C@@H](C)/C(=N\OC/C=C/c2ccc(NC(=O)Cc3ccccn3)nc2)[C@H](C)[C@H]2OC(=O)O[C@@]21C
- MIC [1]: 8 µg/mL (≈ 7.99 µM)
- MIC [2]: > 64 µg/mL
- MIC [3]: 2 µg/mL (≈ 2 µM)
- MIC [4]: > 64 µg/mL
- MIC [5]: 4 µg/mL (≈ 4 µM)
- MIC [6]: 2 µg/mL (≈ 2 µM)
- MIC [7]: 0.125 µg/mL (≈ 0.125 µM)

Structure (SMILES): CC[C@H]1OC(=O)[C@H](C)[C@@H](OC(=O)Cc2ccccn2)[C@H](C)[C@@H](O[C@@H]2O[C@H](C)C[C@H](N(C)C)[C@H]2O)[C@](C)(OC)C[C@@H](C)/C(=N\OCCCc2ccc(NC(=O)Cc3ccccn3)nc2)[C@H](C)[C@H]2OC(=O)O[C@@]21C
- MIC [1]: 8 µg/mL (≈ 7.97 µM)
- MIC [2]: > 64 µg/mL
- MIC [3]: 2 µg/mL (≈ 1.99 µM)
- MIC [4]: > 64 µg/mL
- MIC [5]: 2 µg/mL (≈ 1.99 µM)
- MIC [6]: 2 µg/mL (≈ 1.99 µM)
- MIC [7]: 0.125 µg/mL (≈ 0.125 µM)

Structure (SMILES): CC[C@H]1OC(=O)[C@H](C)[C@@H](OC(=O)Cc2ccccn2)[C@H](C)[C@@H](O[C@@H]2O[C@H](C)C[C@H](N(C)C)[C@H]2O)[C@](C)(OC)C[C@@H](C)/C(=N\OC/C=C/c2cccnc2N)[C@H](C)[C@H]2OC(=O)O[C@@]21C
- MIC [1]: 2 µg/mL (≈ 2.27 µM)
- MIC [2]: 32 µg/mL (≈ 36.3 µM)
- MIC [3]: 4 µg/mL (≈ 4.53 µM)
- MIC [4]: > 64 µg/mL
- MIC [5]: 1 µg/mL (≈ 1.13 µM)
- MIC [6]: 1 µg/mL (≈ 1.13 µM)
- MIC [7]: 0.062 µg/mL (≈ 0.0703 µM)

Structure (SMILES): CC[C@H]1OC(=O)[C@H](C)[C@@H](OC(=O)Cc2ccccn2)[C@H](C)[C@@H](O[C@@H]2O[C@H](C)C[C@H](N(C)C)[C@H]2O)[C@](C)(OC)C[C@@H](C)/C(=N\OCC#Cc2ccc([N+](=O)[O-])nc2)[C@H](C)[C@H]2OC(=O)O[C@@]21C
- MIC [1]: 0.5 µg/mL (≈ 0.549 µM)
- MIC [2]: > 64 µg/mL
- MIC [3]: 1 µg/mL (≈ 1.1 µM)
- MIC [4]: > 64 µg/mL
- MIC [5]: 0.25 µg/mL (≈ 0.275 µM)
- MIC [6]: 0.5 µg/mL (≈ 0.549 µM)
- MIC [7]: 0.031 µg/mL (≈ 0.0341 µM)

Structure (SMILES): CC[C@H]1OC(=O)[C@H](C)[C@@H](OC(=O)Cc2ccccn2)[C@H](C)[C@@H](O[C@@H]2O[C@H](C)C[C@H](N(C)C)[C@H]2O)[C@](C)(OC)C[C@@H](C)/C(=N\OCC#Cc2cccc(NC(=O)Cc3ccccn3)n2)[C@H](C)[C@H]2OC(=O)O[C@@]21C
- MIC [1]: 4 µg/mL (≈ 4 µM)
- MIC [2]: > 64 µg/mL
- MIC [3]: 1 µg/mL (≈ 1 µM)
- MIC [4]: > 64 µg/mL
- MIC [5]: 2 µg/mL (≈ 2 µM)
- MIC [6]: 2 µg/mL (≈ 2 µM)
- MIC [7]: 0.125 µg/mL (≈ 0.125 µM)

Structure (SMILES): CC[C@H]1OC(=O)[C@H](C)[C@@H](OC(=O)Cc2ccccn2)[C@H](C)[C@@H](O[C@@H]2O[C@H](C)C[C@H](N(C)C)[C@H]2O)[C@](C)(OC)C[C@@H](C)/C(=N\OC/C=C/c2ccnc(NC(=O)Cc3ccccn3)c2)[C@H](C)[C@H]2OC(=O)O[C@@]21C
- MIC [1]: 4 µg/mL (≈ 4 µM)
- MIC [2]: > 64 µg/mL
- MIC [3]: 4 µg/mL (≈ 4 µM)
- MIC [4]: > 64 µg/mL
- MIC [5]: 4 µg/mL (≈ 4 µM)
- MIC [6]: 4 µg/mL (≈ 4 µM)
- MIC [7]: 0.125 µg/mL (≈ 0.125 µM)
